Patent publication US8586593B2, “Insecticidal compounds” (Syngenta Crop Protection, Inc., priority 2009, dated 2013)

Tests used:
Format in all cases: in vivo
Plutella xylostella = Plutella xylostella (diamond back moth) larval test on artificial diet; conditions: 144 h, 200 ppm (concentration in well 18 ppm), L2 larvae, larval mortality and growth regulation after 6 days
Method: (§1) 24-well microtiter plate (MTP) with artificial diet was treated with test solutions at an application rate of 200 ppm (concentration in well 18 ppm) by pipetting. After drying, the MTP's were infested with L2 larvae (7-12 per well). After an incubation period of 6 days, samples were checked for larval mortality and growth regulation.

Heliothis virescens = Heliothis virescens (tobacco budworm) egg test on artificial diet; conditions: 96 h, 200 ppm (concentration in well 18 ppm), eggs 0-24 h old on artificial diet, egg mortality, larval mortality and growth regulation after 4 days
Method: Eggs (0-24 h old) were placed in 24-well microtiter plate on artificial diet and treated with test solutions at an application rate of 200 ppm (concentration in well 18 ppm) by pipetting. After an incubation period of 4 days, samples were checked for egg mortality, larval mortality, and growth regulation.

Spodoptera littoralis = Spodoptera littoralis (Egyptian cotton leafworm) leaf disc spray test; conditions: foliar, 72 h, 200 ppm sprayed on cotton leaf discs, 5 L1 larvae, mortality, feeding behavior and growth regulation 3 days after treatment
From the text: Spodoptera littoralis (Egyptian Cotton Leafworm)
Cotton leaf discs were placed on agar in a 24-well microtiter plate and sprayed with test solutions at an application rate of 200 ppm. After drying, the leaf discs were infested with 5 L1 larvae. The samples were checked for mortality, feeding behavior, and growth regulation 3 days after treatment (DAT).

Diabrotica balteata = Diabrotica balteata (corn root worm) larval test on artificial diet; conditions: 120 h, 200 ppm (concentration in well 18 ppm), L2 larvae, larval mortality and growth regulation after 5 days
Method: as §1, with “A 24-well” for “24-well”, “with” for “with L2”, “(L2) (6-10” for “(7-12”, “5” for “6”, “mortality,” for “mortality”

Measured: pest or weed control at 200 ppm

O=C(Nc1ccc(OC(F)F)nc1C1CCN(Cc2ccc(-c3ncc(Cl)cn3)cc2)CC1)c1ccnc(Cl)c1 [Compound B6, 2-chloro-N-{1′-[4-(5-chloro-pyrimidin-2-yl)-benzyl]-6-difluoromethoxy-1′,2′,3′,4′,5′,6′-hexahydro-[2,4′]bipyridinyl-3-yl}-isonicotinamide]
≥ 80%: all assays above

O=C(Nc1ccc(C(F)(F)F)cc1C1CC[N+]([O-])(Cc2ccc(-c3ncc(Cl)cn3)cc2)CC1)c1ccnc(Cl)c1 (stereo not drawn) [Compound C1, 2-chloro-N-(2-{1-[4-(5-chloro-pyrimidin-2-yl)-benzyl]-1-oxy-piperidin-4-yl}-4-trifluoromethyl-phenyl)-isonicotinamide]
≥ 80%: all assays above

O=C(Nc1ccc(F)cc1C1CCN(Cc2ccc(-c3ncc(Cl)cn3)cc2)CC1)c1ccnc(Cl)c1 [Compound A10, 2-chloro-N-(2-{1-[4-(5-chloro-pyrimidin-2-yl)-benzyl]-piperidin-4-yl}-4-fluoro-phenyl)-isonicotinamide]
≥ 80%: all assays above

O=C(Nc1ccc(C(F)(F)F)cc1C1CCN(Cc2ccc(-c3ncc(Cl)cn3)cc2)CC1)c1ccnc(Cl)c1 [Compound E1, 2-chloro-N-(2-{1-[4-(5-chloro-pyrimidin-2-yl)-benzyl]-piperidin-4-yl}-4-trifluoromethyl-phenyl)-isonicotinamide acetate]
≥ 80%: Plutella xylostella

O=C(Nc1cc(OC(F)(F)F)ccc1C1CCN(Cc2ccc(-c3ncc(Cl)cn3)cc2)CC1)c1ccnc(Cl)c1 [Compound A12, 2-chloro-N-(2-{1-[4-(5-chloro-pyrimidin-2-yl)-benzyl]-piperidin-4-yl}-5-trifluoromethoxy-phenyl)-isonicotinamide]
≥ 80%: all assays above

O=C(Nc1ccc(C(F)(F)F)cc1C1CCN(Cc2ccc(-c3ncc(F)cn3)cc2)CC1)c1ccnc(Cl)c1 [Compound A2, 2-chloro-N-(2-{1-[4-(5-fluoro-pyrimidin-2-yl)-benzyl]-piperidin-4-yl}-4-trifluoromethyl-phenyl)-isonicotinamide]
≥ 80%: all assays above

O=C(Nc1ccc(C(F)(F)F)nc1C1CCN(Cc2ccc(-c3ncc(F)cn3)cc2)CC1)c1ccnc(Cl)c1 [Compound B2, 2-chloro-N-{1′-[4-(5-fluoro-pyrimidin-2-yl)-benzyl]-6-trifluoromethyl-1′,2′,3′,4′,5′,6′-hexahydro-[2,4′]bipyridinyl-3-yl}-isonicotinamide]
≥ 80%: all assays above

O=C(Nc1ccc(C(F)(F)F)cc1C1CCN(Cc2ccc(-c3ncc(Cl)cn3)cc2)CC1)c1ccnc(Cl)c1 [Compound E8]
≥ 80%: Heliothis virescens | Spodoptera littoralis | Diabrotica balteata

O=C(Nc1ccc(C(F)(F)F)nc1C1CCN(Cc2ccc(-c3ncc(Cl)cn3)cc2)CC1)c1ccnc(Cl)c1 [Compound B1, 2-chloro-N-{1′-[4-(5-chloro-pyrimidin-2-yl)-benzyl]-6-trifluoromethyl-1′,2′,3′,4′,5′,6′-hexahydro-[2,4′]bipyridinyl-3-yl}-isonicotinamide]
≥ 80%: all assays above

O=C(Nc1c(F)cc(C(F)(F)F)nc1C1CCN(Cc2ccc(-c3ncc(Cl)cn3)cc2)CC1)c1ccnc(Cl)c1 [Compound B7, 2-chloro-N-{1′-[4-(5-chloro-pyrimidin-2-yl)-benzyl]-4-fluoro-6-trifluoromethyl-1′,2′,3′,4′,5′,6′-hexahydro-[2,4′]bipyridinyl-3-yl}-isonicotinamide]
≥ 80%: all assays above
